{"source": "patent US8399429B2", "about": "“Uracyl cyclopropyl nucleotides” (Janssen Products, LP, priority 2008, dated 2013)", "key": {"Huh7-CMV-Luc cells": {"system": "Huh7-CMV-Luc cells", "test": "Cellular toxicity in Huh7-CMV-Luc replicon assay", "format": "cell-based", "settings": "three days incubation, Luc activity, read-out: CC50 (μM) (Huh-7)", "procedure": "(§1) Cellular toxicity was determined in the Huh7-CMV-Luc replicon assay. Replicon cells (2500 cells/well), stably transformed with a luciferase reporter gene under control of the cytomegalovirus (CMV) constitutive promotor, were cultured in the presence or absence of test compound concentrations. After three days of incubation at 37° C. in a humidified 5% CO2 atmosphere, cell proliferation was quantified by measuring the Luc activity, and expressed as CC50 values (cytotoxicity, 50% inhibitory concentration of cell growth). Tests were performed in 384-well plates."}, "[1]": {"system": "wild type human immunodeficiency virus (HIV) strain IIIB", "test": "HIV assay in MT4 LTR-EGFP cells", "format": "cell-based, HIV-1", "settings": "three days after infection", "procedure": "(§2) Compounds of the invention were tested for their potency against wild type human immunodeficiency virus (HIV). Antiviral activity was evaluated using a cellular assay performed according to the following procedure. The human T-cell line MT4 was engineered with Green Fluorescent Protein (GFP) and a HIV-specific promoter, HIV-1 long terminal repeat (LTR). This cell line, designated MT4 LTR-EGFP, can be used for the in vitro evaluation of anti-HIV activity of investigational compounds. In HIV-1 infected cells, the Tat protein is produced, which upregulates the LTR promotor and eventually leads to stimulation of the GFP reporter production, allowing to measure ongoing HIV-infection fluorometrically. Effective concentration values such as 50% effective concentration (EC50) can be determined and are usually expressed in μM. An EC50 value is defined as the concentration of test compound that reduces the fluorescence of HIV-infected cells by 50%. Monitoring of HIV-1 infection was done using a scanning microscope. Image analysis allows very sensitive detection of viral infection. Measurements were done before cell necrosis, which usually takes place about five days after infection, in particular measurements were performed three days after infection. The column IIIB in the table list the EC50 values against the wild type strain IIIB."}, "MT-4 cells": {"system": "MT-4 cells", "test": "Cellular toxicity in the HIV cell-line (MT-4)", "format": "cell-based, human", "procedure": "as §2\n(§3) Also the HIV activity is given (EC50 HIV (μM)) and the cellular toxicity in the HIV cell-line (CC50 (μM) (MT-4))."}, "[2]": {"system": "HCV replicon (Huh-7 luc/neo, NS3-NS5B of HCV type 1b)", "test": "HCV replicon assay (Huh-Luc, luciferase readout)", "format": "cell-based", "settings": "Huh-Luc cells, HCV type 1b replicon, three days incubation, luciferase activity", "excerpt": "The compounds of formula I were examined for activity in the inhibition of HCV RNA replication in a cellular assay aimed at identifying compounds that inhibit a HCV functional cellular replicating cell line, also known as HCV replicons. The cellular assay was based on a bicistronic expression construct, as described by Lohmann et al. (1999), Science vol. 285 pp. 110-113 with modifications described by Krieger et al. (2001), Journal of Virology 75: 4614-4624, in a multi-target screening strategy.\nThe assay utilized the stably transfected cell line Huh-7 luc/neo (hereafter referred to as Huh-Luc). This cell line harbors an RNA encoding a bicistronic expression construct comprising the wild type NS3-NS5B regions of HCV type 1b translated from an Internal Ribosome Entry Site (IRES) from encephalomyocarditis virus (EMCV), preceded by a reporter portion (FfL-luciferase), and a selectable marker portion (neoR, neomycine phosphotransferase). The construct is bordered by 5′ and 3′ NTRs (non-translated regions) from HCV type 1b. Continued culture of the replicon cells in the presence of G418 (neo^R) is dependent on the replication of the HCV RNA. The stably transfected replicon cells that express HCV RNA, which replicates autonomously and to high levels, encoding inter alia luciferase, were used for screening the antiviral compounds.\nThe replicon cells were plated in 384 well plates in the presence of the test and control compounds which were added in various concentrations. Following an incubation of three days, HCV replication was measured by assaying luciferase activity (using standard luciferase assay substrates and reagents and a Perkin Elmer ViewLux™ ultraHTS microplate imager). Replicon cells in the control cultures have high luciferase expression in the absence of any inhibitor. The inhibitory activity of the compound on luciferase activity was monitored on the Huh-Luc cells, enabling a dose-response curve for each test compound. EC50 values were then calculated, which value represents the amount of the compound required to decrease the level of detected luciferase activity by 50%, or more specifically, the ability of the genetically linked HCV replicon RNA to replicate."}, "[3]": {"test": "Cellular toxicity in Huh7-CMV-Luc replicon assay", "format": "cell-based", "settings": "human, Huh7-CMV-Luc cells, three days incubation, Luc activity; read-out: CC50 (μM) (Huh-7)", "procedure": "as §1"}, "[4]": {"test": "Cellular toxicity in the HIV cell-line (MT-4)", "format": "cell-based, human", "settings": "human", "procedure": "as §2, §3"}, "[5]": {"settings": "Human immunodeficiency virus 1, IIIB, 72 h"}}}
{"compound": "C[C@H](NP(=O)(OC[C@H]1O[C@@H](n2ccc(=O)[nH]c2=O)C2(CC2)[C@@H]1O)Oc1ccc(Cl)cc1)C(=O)OCc1ccccc1", "note": "(single isomer, unassigned) [Compound 7b]", "values": [{"measurement": "CC50", "setting": "Huh7-CMV-Luc cells", "result": "> 98", "unit": "µM"}, {"measurement": "EC50", "setting": "[1]", "result": "> 98", "unit": "µM"}, {"measurement": "CC50", "setting": "MT-4 cells", "result": "> 90", "unit": "µM"}, {"measurement": "EC50", "setting": "[2]", "result": 3.4, "unit": "µM"}]}
{"compound": "C[C@H](NP(=O)(OC[C@H]1O[C@@H](n2ccc(=O)[nH]c2=O)C2(CC2)[C@@H]1O)Oc1ccc(Cl)cc1)C(=O)OCc1ccccc1", "note": "(some centres unmarked) [Compound 7]", "values": [{"measurement": "CC50 at 3 days", "setting": "[3]", "result": "> 90", "unit": "µM"}, {"measurement": "EC50", "setting": "[1]; [5]", "result": "> 90", "unit": "µM"}, {"measurement": "CC50", "setting": "[4]", "result": "> 64", "unit": "µM"}, {"measurement": "EC50", "setting": "[2]; Hepatitis C virus, Huh-7, 72 h", "result": 6.1, "unit": "µM"}]}
{"compound": "C[C@H](NP(=O)(OC[C@H]1O[C@@H](n2ccc(=O)[nH]c2=O)C2(CC2)[C@@H]1O)Oc1ccc(Cl)cc1)C(=O)OCc1ccccc1", "note": "(single isomer, unassigned) [Compound 7a]", "values": [{"measurement": "CC50 at 3 days", "setting": "[3]", "result": 58.4, "unit": "µM"}, {"measurement": "EC50", "setting": "[1]; [5]", "result": "> 60", "unit": "µM"}, {"measurement": "CC50", "setting": "[4]", "result": "> 50", "unit": "µM"}, {"measurement": "EC50", "setting": "[2]", "result": 10.9, "unit": "µM"}]}
{"compound": "C[C@H](NP(=O)(OC[C@H]1O[C@@H](n2ccc(=O)[nH]c2=O)C2(CC2)[C@@H]1O)Oc1ccc2[nH]ccc2c1)C(=O)OCc1ccccc1", "note": "(some centres unmarked) [Compound 20]", "values": [{"measurement": "CC50 at 3 days", "setting": "[3]", "result": "> 32", "unit": "µM"}, {"measurement": "EC50", "setting": "[1]; [5]", "result": "> 98", "unit": "µM"}, {"measurement": "CC50", "setting": "[4]", "result": "> 98", "unit": "µM"}, {"measurement": "EC50", "setting": "[2]; Hepatitis C virus, Huh-7, 72 h", "result": 7.6, "unit": "µM"}]}
{"compound": "CCOC(=O)C1(NP(=O)(OC[C@H]2O[C@@H](n3ccc(=O)[nH]c3=O)C3(CC3)[C@@H]2O)Oc2ccccc2)CC1", "note": "(some centres unmarked) [Compound 29]", "values": [{"measurement": "CC50 at 3 days", "setting": "[3]", "result": "> 98", "unit": "µM"}, {"measurement": "EC50", "setting": "[1]; [5]", "result": "> 98", "unit": "µM"}, {"measurement": "CC50", "setting": "[4]", "result": "> 98", "unit": "µM"}, {"measurement": "EC50", "setting": "[2]; Hepatitis C virus, Huh-7, 72 h", "result": "> 98", "unit": "µM"}]}
{"compound": "CCC(C)OC(=O)[C@H](C)NP(=O)(OC[C@H]1O[C@@H](n2ccc(=O)[nH]c2=O)C2(CC2)[C@@H]1O)Oc1ccccc1", "note": "(some centres unmarked) [Compound 24]", "values": [{"measurement": "CC50 at 3 days", "setting": "[3]", "result": "> 98", "unit": "µM"}, {"measurement": "EC50", "setting": "[1]; [5]", "result": "> 98", "unit": "µM"}, {"measurement": "CC50", "setting": "[4]", "result": "> 98", "unit": "µM"}, {"measurement": "EC50", "setting": "[2]; Hepatitis C virus, Huh-7, 72 h", "result": 12.4, "unit": "µM"}]}
{"compound": "CCOC(=O)[C@H](C)NP(=O)(OC[C@H]1O[C@@H](n2ccc(=O)[nH]c2=O)C2(CC2)[C@@H]1O)Oc1ccc(Cl)cc1", "note": "(some centres unmarked) [Compound 8]", "values": [{"measurement": "CC50 at 3 days", "setting": "[3]", "result": "> 98", "unit": "µM"}, {"measurement": "EC50", "setting": "[1]; [5]", "result": "> 98", "unit": "µM"}, {"measurement": "CC50", "setting": "[4]", "result": "> 98", "unit": "µM"}, {"measurement": "EC50", "setting": "[2]; Hepatitis C virus, Huh-7, 72 h", "result": 5.9, "unit": "µM"}]}
{"compound": "CC(C)OC(=O)[C@H](C)NP(=O)(OC[C@H]1O[C@@H](n2ccc(=O)[nH]c2=O)C2(CC2)[C@@H]1O)Oc1ccccc1", "note": "(some centres unmarked) [Compound 3]", "values": [{"measurement": "CC50 at 3 days", "setting": "[3]", "result": "> 98", "unit": "µM"}, {"measurement": "EC50", "setting": "[1]; [5]", "result": "> 98", "unit": "µM"}, {"measurement": "CC50", "setting": "[4]", "result": "> 98", "unit": "µM"}, {"measurement": "EC50", "setting": "[2]; Hepatitis C virus, Huh-7, 72 h", "result": 9.6, "unit": "µM"}]}
